Here are results for three compounds from ChEMBL document CHEMBL1158333, “New diterpenes from the South African soft coral Eleutherobia aurea” (1997).

The nature of this assay: Antiinflammatory activity in rabbit neutrophils assessed as inhibition of fMLP-induced superoxide radical anion generation at 20 ug/mL. Type of assay: functional. The conditions noted are these: Oryctolagus cuniculus, Neutrophil.

By inhibition is commonly meant the share of the control response that was lost under treatment. For the compound `C=C1CC/C=C(\C)CC[C@@H]2C(C(CC=C(C)C)OC(C)=O)=CO[C@H](OC(C)=O)[C@@H]12` (stereo partly drawn), the inhibition at 20 µg/mL is over 90%. Then `C=C(C)C(CC(OC(C)=O)C1=CO[C@H](OC(C)=O)[C@H]2C(=C)CC[C@@H]3O[C@@]3(C)CC[C@H]12)OC(C)=O` (stereo partly drawn) [7,8-EPOXYZAHAVIN A], with over 90%; and `C=C(C)C(CC(OC(C)=O)C1=CO[C@H](OC(C)=O)[C@H]2C(=C)CC/C=C(\C)CC[C@H]12)OC(C)=O` (stereo partly drawn) [ZAHAVIN A], with over 90%.
